The source of these data is patent US20240246940A1, “HETEROARYL DERIVATIVE COMPOUND AND USE THEREOF” (VORONOI INC., priority 2021, published 2024).

Each structure is given as a SMILES string.

Experiment [1] has as its system SK-BR-3 cells (HER2 overexpressing cell line). The experiment can be described thus: SK-BR-3 cell proliferation inhibitory activity (CellTiter-Glo, 120 hours). It counts as cell-based. As to conditions: Homo sapiens. As to the method:
(§1) To evaluate the cell proliferation inhibitory activity of the compound according to the present invention on HER2 and EGFR kinases, the following method was performed using HER2 overexpressing cell lines (SK-BR-3, BT-474, and N-87) and EGFR expressing cell line (HaCaT).
(§2) McCOY'S 5A supplemented with 10% FBS was used for SK-BR-3 cells, RPMI-1640 medium supplemented with 20% FBS was used for BT-474 cancer cells, and RPMI-1640 medium supplemented with 10% FBS was used for N-87 cancer cells. DMEM supplemented with 10% FBS was used for HaCaT cells.
(§3) For SK-BR-3 cells, 5000 cells were aliquoted into each well of a white clear bottom 96 well plate (Corning) 48 hours before treatment with the compounds of Examples. For BT-474 cells, 5000 cells were aliquoted into each well of a white clear bottom 96 well plate (Corning) 48 hours before treatment with the compounds of Examples. For N-87 cells, 5000 cells were aliquoted into each well of a white clear bottom 96 well plate (Corning) 24 hours before treatment with the compounds of Examples. For HaCaT cells, 3000 cells were aliquoted into each well of a white clear bottom 96 well plate (Corning) 24 hours before treatment with the compounds of Examples. For SK-BR-3 cells and BT-474 cells, the compounds of Examples were diluted in dimethyl sulfoxide (three-fold dilution, a total of 11 concentrations) and injected each in an amount of 1 μl to a final concentration of 0.2 nM to 10 μM. For N-87 cells, the compounds of Examples were diluted in dimethyl sulfoxide (five-fold dilution, a total of 11 concentrations) and injected each in an amount of 0.5 μl to a final concentration of […] to 5 μM. For HaCaT cells, the compounds of Examples were diluted in dimethyl sulfoxide (three-fold dilution, a total of 11 concentrations) and injected each in an amount of 0.5 μl to a final concentration of 0.8 nM to 45 μM. For the measurement of living cells, the cells were stored at room temperature for 10 minutes using CellTiter-Glo cell viability reagent (Promega) after a certain period of time (SK-BR-3: 120 hours, BT-474: 120 hours, N-87: 72 hours, and HaCaT: 72 hours) post treatment with the compounds of Examples, and the luminescence intensity thereof was measured using a reader (SynergyNeo, Biotek). Each test was repeated three times.
(§4) The result values were calculated as a cell growth rate (%) compared to those of the control group. A graph was created using the GraphPad Prism version 5.0 program, and GI50 values were calculated.
A general note: ATP-based viability assays read luminescence as a measure of living cells.

Experiment [2] relates to HaCaT cells (EGFR expressing cell line). The experiment can be described thus: HaCaT cell proliferation inhibitory activity (CellTiter-Glo, 72 hours). It counts as cell-based. The conditions noted are these: Homo sapiens. As to the method:
as §1, §2, §3, §4

For `C=CC(=O)N1CCC(Oc2cc3c(Nc4cc(-c5cccc(C#N)c5F)ccc4OC)ncnc3cc2OC)CC1` [Example 134, 3′-((6-((1-acryloyl-piperidin-4-yl)oxy)-7-methoxy-quinazolin-4-yl)amino)-2-fluoro-4′-methoxy-[1,1′-biphenyl]-3-carbonitrile], the GI50 in experiment [1] and in experiment [2] was 150 to 1000 nM throughout.

Regarding `C=CC(=O)N1CCC(Oc2cc3c(Nc4cc(-c5ccc(F)cc5)ccc4OC)ncnc3cc2OC)C1` (centres unmarked) [Example 60, 1-(3-((4-((4′-fluoro-4-methoxy-[1,1′-biphenyl]-3-yl)amino)-7-methoxy-quinazolin-6-yl)oxy)pyrrolidin-1-yl)prop-2-en-1-one], the GI50 – broadly, the concentration at which growth is held to half of that of the control – in experiment [1] is no more than 150 nM; in experiment [2], 150 to 1000 nM.

Turning to `C=CC(=O)N1CCC(Oc2cc3c(Nc4cc(-c5coc6ccccc56)ccc4OC)ncnc3cc2OC)CC1` [Example 73, 1-(4-((4-((5-(benzofuran-3-yl)-2-methoxyphenyl)amino)-7-methoxy-quinazolin-6-yl)oxy)piperidin-1-yl)prop-2-en-1-one], the GI50 in experiment [1] and in experiment [2] was no more than 150 nM throughout.

Consider `C=CC(=O)N1CCC(Oc2cc3c(Nc4cc(-c5ccnn5C)ccc4OC)ncnc3cc2OC)C1` (centres unmarked) [Example 61, 1-(3-((7-methoxy-4-((2-methoxy-5-(1-methyl-1H-pyrazol-5-yl)phenyl)amino)quinazolin-6-yl)oxy)pyrrolidin-1-yl)prop-2-en-1-one], for which the GI50 in experiment [1] was 150 to 1000 nM; in experiment [2], greater than 1000 nM.

Regarding `C=CC(=O)N1CCC(Oc2cc3c(Nc4cc(-c5ccco5)ccc4OC)ccnc3cc2OC)CC1` [Example 125, 1-(4-((4-((5-(furan-2-yl)-2-methoxyphenyl)amino)-7-methoxy-quinolin-6-yl)oxy)piperidin-1-yl)prop-2-en-1-one], the GI50 in experiment [1] and in experiment [2] was 150 to 1000 nM throughout.

As to `C=CC(=O)N1CC(Oc2cc3c(Nc4cc(-c5cccc(NC(=O)N6C(=O)OC[C@H]6c6ccccc6)c5)ccc4OC)ncnc3cc2OC)C1` [Example 236, (R)-N-(3′-((6-((1-acryloylazetidin-3-yl)oxy)-7-methoxyquinazolin-4-yl)amino)-4′-methoxy-[1,1′-biphenyl]-3-yl)-2-oxo-4-phenyloxazolidin-3-carboxamide], the GI50 in experiment [1] was 150 to 1000 nM; in experiment [2] it was greater than 1000 nM.

Take `C=CC(=O)Nc1cc2c(Nc3cc(-c4ccn5ncnc5c4)ccc3OC)ncnc2cc1OC` [Example 287, N-(4-((5-([1,2,4]triazolo[1,5-a]pyridin-7-yl)-2-methoxyphenyl)amino)-7-methoxyquinazolin-6-yl)acrylamide]: the GI50 in experiment [1] is no more than 150 nM; in experiment [2] it was greater than 1000 nM.

With `C=CC(=O)N1CC(Oc2cc3c(Nc4cc(-c5cccc(C#N)c5)ccc4OC)ncnc3cc2OC)C1` [Example 12, 3′-((6-((1-acryloylazetidin-3-yl)oxy)-7-methoxy-quinazolin-4-yl)amino)-4′-methoxy-[1,1′-biphenyl]-3-carbonitrile], the GI50 in experiment [1] and in experiment [2] was no more than 150 nM each time.

As to `C=CC(=O)N1CCC(Oc2cc3c(Nc4cc(-c5cccs5)ccc4OC4CCN(C)C4)ncnc3cc2OC)CC1` (centres unmarked) [Example 250, 1-(4-((7-methoxy-4-((2-((1-methylpyrrolidin-3-yl)oxy)-5-(thiophen-2-yl)phenyl)amino)quinazolin-6-yl)oxy)piperidin-1-yl)prop-2-en-1-one], the GI50 in experiment [1] and in experiment [2] was no more than 150 nM each time.

For `COc1ccc(-c2cccs2)cc1Nc1ncnc2cc(OC)c(OC3CCN(C(=O)/C=C/CN(C)C)CC3)cc12` [Example 119, (E)-4-(dimethylamino) 1-(4-((7-methoxy-4-((2-methoxy-5-(thiophen-2-yl)phenyl)amino)quinazolin-6-yl)oxy)piperidin-1-yl)but-2-en-1-one], the results for the GI50 in experiment [1] and in experiment [2] were 150 to 1000 nM and no more than 150 nM, respectively.

Consider `C=CC(=O)N1CC[C@H](Oc2cc3c(Nc4cc(-c5ccco5)ccc4OC)ncnc3cc2OC)C1` [Example 132, (S)-1-(3-((4-((5-(furan-2-yl)-2-methoxyphenyl)amino)-7-methoxy-quinazolin-6-yl)oxy)pyrrolidin-1-yl)prop-2-en-1-one], for which the GI50 in experiment [1] is greater than 1000 nM; in experiment [2], 150 to 1000 nM.

In the case of `C=CC(=O)N1CC(Oc2cc3c(Nc4cc(-c5ccc6ncnn6c5)ccc4OC)ncnc3cc2OC)C1` [Example 31, 1-(3-((4-((5-([1,2,4]triazolo [1,5-a]pyridin-6-yl)-2-methoxyphenyl)amino)-7-methoxy-quinazolin-6-yl)oxy)azetidin-1-yl)prop-2-en-1-one], the GI50 in experiment [1] is 150 to 1000 nM; in experiment [2], greater than 1000 nM.

As for `C=CC(=O)N1CCC(Oc2cc3c(Nc4cc(-c5ccco5)c(C)cc4OC)ncnc3cc2OC)CC1` [Example 96, 1-(4-((4-((5-(furan-2-yl)-2-methoxy-4-methylphenyl)amino)-7-methoxy-quinazolin-6-yl)oxy)piperidin-1-yl)prop-2-en-1-one], the GI50 in experiment [1] is 150 to 1000 nM; in experiment [2] it was no more than 150 nM.

For `C=CC(=O)N1CCC(Oc2cc3c(Nc4cc(-c5ccco5)ccc4OCCOC)ncnc3cc2OC)CC1` [Example 259, 1-(4-((4-((5-(furan-2-yl)-2-(2-methoxyethoxy)phenyl)amino)-7-methoxyquinazolin-6-yl)oxy)piperidin-1-yl)prop-2-en-1-one], the GI50 in experiment [1] and in experiment [2] was no more than 150 nM in each case.

Turning to `C=CC(=O)N1CC(Oc2cc3c(Nc4cc(-c5ccc(Cl)c(F)c5)ccc4OC)ncnc3cc2OC)C1` [Example 28, 1-(3-((4-((4′-chloro-3′-fluoro-4-methoxy-[1,1′-biphenyl]-3-yl)amino)-7-methoxy-quinazolin-6-yl)oxy)azetidin-1-yl)prop-2-en-1-one], the GI50 in experiment [1] and in experiment [2] was 150 to 1000 nM throughout.

For the compound `C=CC(=O)N1CCC(Nc2cc3c(Nc4cc(-c5ccco5)ccc4OC)ncnc3cc2O[C@H]2CCOC2)CC1` [Example 279, (S)-1-(4-((4-((5-(furan-2-yl)-2-methoxyphenyl)amino)-7-((tetrahydrofuran-3-yl)oxy)quinazolin-6-yl)amino)piperidin-1-yl)prop-2-en-1-one], the GI50 in experiment [1] and in experiment [2] was no more than 150 nM each time.

On to `C=CC(=O)N1CCC(Oc2cc3c(Nc4cc(-c5ccco5)ccc4OC)ncnc3cc2OC)C(F)(F)C1` (centres unmarked) [Example 111, 1-(3,3-difluoro-4-((4-((5-(furan-2-yl)-2-methoxyphenyl)amino)-7-methoxy-quinazolin-6-yl)oxy)piperidin-1-yl)prop-2-en-1-one], for which the GI50 in experiment [1] and in experiment [2] was no more than 150 nM in each case.

`C=CC(=O)N1CCCC(Oc2cc3c(Nc4cc(-c5ccco5)ccc4OC)ncnc3cc2OC)C1` (centres unmarked) [Example 162, 1-(3-((4-((5-(furan-2-yl)-2-methoxyphenyl)amino)-7-methoxy-quinazolin-6-yl)oxy)piperidin-1-yl)prop-2-en-1-one]: the GI50 in experiment [1] was greater than 1000 nM; in experiment [2] it was 150 to 1000 nM.

On to `C=CC(=O)N1CC(Oc2cc3c(Nc4cc(-c5cccs5)c(C)cc4OC)ncnc3cc2OC)C1` [Example 52, 1-(3-((7-methoxy-4-((2-methoxy-4-methyl-5-(thiophen-2-yl)phenyl)amino)quinazolin-6-yl)oxy)azetidin-1-yl)prop-2-en-1-one], for which the GI50 in experiment [1] and in experiment [2] was no more than 150 nM throughout.

For `C=CC(=O)Nc1cc2c(Nc3cc(-c4ccco4)ccc3OC)ncnc2cc1OCCCOC` [Example 273, N-(4-((5-(furan-2-yl)-2-methoxyphenyl)amino)-7-(3-methoxypropoxy)quinazolin-6-yl)acrylamide], the GI50 in experiment [1] and in experiment [2] was no more than 150 nM each time.

As for `C=CC(=O)N1CC(Oc2cc3c(Nc4cc(-c5cccc(F)c5F)ccc4OC)ncnc3cc2OC)C1` [Example 19, 1-(3-((4-((2′,3′-difluoro-4-methoxy-[1,1′-biphenyl]-3-yl)amino)-7-methoxy-quinazolin-6-yl)oxy)azetidin-1-yl) prop-2-en-1-one], the GI50 in experiment [1] and in experiment [2] was no more than 150 nM in each case.

Consider `C=CC(=O)N1CCC(Oc2cc3c(Nc4cc(-c5cccs5)ccc4OC)ncnc3cc2OC)C(F)C1` (centres unmarked) [Example 144, 1-(3-fluoro-4-((7-methoxy-4-((2-methoxy-5-(thiophen-2-yl)phenyl)amino)quinazolin-6-yl)oxy)piperidin-1-yl)prop-2-en-1-one], for which the GI50 in experiment [1] and in experiment [2] was no more than 150 nM throughout.
